Test system: 379773-124-R-J2-PDC spheroid viability
Experiment: Anticancer human tumor 379773-124-R-J2-PDC patient-derived endometrial carcinoma cell line growth inhibition [POLQ]
Conditions: spheroids with HUVEC and MSC; for IC50: curve of first compound; for viability, T/C: stronger effect = lower value; active = viability on the fitted dose curve at most 10% of control; inactive = the rest
Method in brief: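 PDC + HUVEC + MSC complex spheroids; POLQ inhibitors ± partner drugs; top conc. at/near clinical Cmax, else 10 microM (SN-38 1 microM), half-log dilutions; 37 degrees C, 5% CO2.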

[1] = second compound 0.0316 µM, first compound 0.0316 µM
[2] = second compound 0.0316 µM, first compound 0.1 µM
[3] = second compound 0.0316 µM, first compound 0.316 µM
[4] = second compound 0.0316 µM, first compound 1 µM
[5] = second compound 0.0316 µM, first compound 3.16 µM
[6] = second compound 0.0316 µM, first compound 10 µM
[7] = second compound 0.1 µM, first compound 0.0316 µM
[8] = second compound 0.1 µM, first compound 0.1 µM
[9] = second compound 0.1 µM, first compound 0.316 µM
[10] = second compound 0.1 µM, first compound 1 µM
[11] = second compound 0.1 µM, first compound 3.16 µM
[12] = second compound 0.1 µM, first compound 10 µM
[13] = second compound 0.316 µM, first compound 0.0316 µM
[14] = second compound 0.316 µM, first compound 0.1 µM
[15] = second compound 0.316 µM, first compound 0.316 µM
[16] = second compound 0.316 µM, first compound 1 µM
[17] = second compound 0.316 µM, first compound 3.16 µM
[18] = second compound 0.316 µM, first compound 10 µM
[19] = second compound 1 µM, first compound 0.0316 µM
[20] = second compound 1 µM, first compound 0.1 µM
[21] = second compound 1 µM, first compound 0.316 µM
[22] = second compound 1 µM, first compound 1 µM
[23] = second compound 1 µM, first compound 3.16 µM
[24] = second compound 1 µM, first compound 10 µM
[25] = second compound 3.16 µM, first compound 0.0316 µM
[26] = second compound 3.16 µM, first compound 0.1 µM
[27] = second compound 3.16 µM, first compound 0.316 µM
[28] = second compound 3.16 µM, first compound 1 µM
[29] = second compound 3.16 µM, first compound 3.16 µM
[30] = second compound 3.16 µM, first compound 10 µM
[31] = second compound 10 µM, first compound 0.0316 µM
[32] = second compound 10 µM, first compound 0.1 µM
[33] = second compound 10 µM, first compound 0.316 µM
[34] = second compound 10 µM, first compound 1 µM
[35] = second compound 10 µM, first compound 3.16 µM
[36] = second compound 10 µM, first compound 10 µM
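Also: spheroids exposed to drugs for seven days before readout.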
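For viability, T/C in this document: percent viability relative to DMSO vehicle control taken as 100%.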

C=CC(=O)N1CCN(c2nc(=O)n(-c3c(C)ccnc3C(C)C)c3nc(-c4c(O)cccc4F)c(F)cc23)C(C)C1 (stereo not drawn) + Nc1ccc(C#CCN(C(=O)Cc2ncc(C(F)(F)F)cc2C(F)(F)F)c2ccc(F)cc2)nn1
inactive: viability, T/C [1] 102% | viability, T/C [2] 91.5% | viability, T/C [3] 103% | viability, T/C [4] 94.7% | viability, T/C [5] 114% | viability, T/C [6] 96.1% | viability, T/C [7] 90% | viability, T/C [8] 89.1% | viability, T/C [9] 104% | viability, T/C [10] 98.7% | viability, T/C [11] 92% | viability, T/C [12] 91.7% | viability, T/C [13] 95.4% | viability, T/C [14] 93.5% | viability, T/C [15] 90.2% | viability, T/C [16] 86.4% | viability, T/C [17] 94.1% | viability, T/C [18] 100% | viability, T/C [19] 89.2% | viability, T/C [20] 85.5% | viability, T/C [21] 99.6% | viability, T/C [22] 93% | viability, T/C [23] 98.8% | viability, T/C [24] 103% | viability, T/C [25] 91.9% | viability, T/C [26] 90.9% | viability, T/C [27] 101% | viability, T/C [28] 90.3% | viability, T/C [29] 95% | viability, T/C [30] 93.3% | viability, T/C [31] 88.3% | viability, T/C [32] 91.4% | viability, T/C [33] 93.3% | viability, T/C [34] 91.4% | viability, T/C [35] 94.9% | viability, T/C [36] 98.2%
> 10 µM: IC50 (second compound 0.0316 µM) | IC50 (second compound 0.1 µM) | IC50 (second compound 0.316 µM) | IC50 (second compound 1 µM) | IC50 (second compound 3.16 µM) | IC50 (second compound 10 µM)

CC(C)n1c(=O)n(C)c2cnc3cc(F)c(-c4ccc(OCCCN5CCCCC5)nc4)cc3c21 + Nc1ccc(C#CCN(C(=O)Cc2ncc(C(F)(F)F)cc2C(F)(F)F)c2ccc(F)cc2)nn1
inactive: viability, T/C [1] 95.4% | viability, T/C [2] 96.4% | viability, T/C [3] 83.3% | viability, T/C [4] 94.3% | viability, T/C [5] 81.7% | viability, T/C [6] 72.6% | viability, T/C [7] 97.9% | viability, T/C [8] 92.6% | viability, T/C [9] 85.3% | viability, T/C [10] 87.6% | viability, T/C [11] 78.9% | viability, T/C [12] 73.6% | viability, T/C [13] 90.4% | viability, T/C [14] 96.7% | viability, T/C [15] 84.7% | viability, T/C [16] 88.8% | viability, T/C [17] 81.4% | viability, T/C [18] 74.9% | viability, T/C [19] 98.5% | viability, T/C [20] 98.2% | viability, T/C [21] 87% | viability, T/C [22] 94.5% | viability, T/C [23] 84.7% | viability, T/C [24] 77.8% | viability, T/C [25] 92.6% | viability, T/C [26] 87.5% | viability, T/C [27] 82.1% | viability, T/C [28] 80.7% | viability, T/C [29] 85.9% | viability, T/C [30] 85.3% | viability, T/C [31] 85.5% | viability, T/C [32] 89.7% | viability, T/C [33] 77% | viability, T/C [34] 77.8% | viability, T/C [35] 75.2% | viability, T/C [36] 73.8%
> 10 µM: IC50 (second compound 0.0316 µM) | IC50 (second compound 0.1 µM) | IC50 (second compound 0.316 µM) | IC50 (second compound 1 µM) | IC50 (second compound 3.16 µM) | IC50 (second compound 10 µM)

CC1COCCN1c1cc(-c2ccnn2C)c2ccnc(-c3ccn[nH]3)c2n1 (stereo not drawn) + Nc1ccc(C#CCN(C(=O)Cc2ncc(C(F)(F)F)cc2C(F)(F)F)c2ccc(F)cc2)nn1
inactive: viability, T/C [1] 89.5% | viability, T/C [2] 56.8% | viability, T/C [3] 13.7% | viability, T/C [7] 89.5% | viability, T/C [8] 61.2% | viability, T/C [9] 15.6% | viability, T/C [10] 11.1% | viability, T/C [11] 12.2% | viability, T/C [12] 8.99% | viability, T/C [13] 90.6% | viability, T/C [14] 54.3% | viability, T/C [15] 16.2% | viability, T/C [16] 11.5% | viability, T/C [17] 12.7% | viability, T/C [18] 7.88% | viability, T/C [19] 93.2% | viability, T/C [20] 60.6% | viability, T/C [21] 13.9% | viability, T/C [22] 9.22% | viability, T/C [23] 12.6% | viability, T/C [24] 9.58% | viability, T/C [25] 91.4% | viability, T/C [26] 62.9% | viability, T/C [27] 13% | viability, T/C [31] 80.1% | viability, T/C [32] 64.2% | viability, T/C [33] 17.7%
0.13 µM: IC50 (second compound 1 µM)
0.114 µM: IC50 (second compound 0.316 µM)
0.142 µM: IC50 (second compound 10 µM)
active: viability, T/C [4] 11.4% | viability, T/C [5] 12% | viability, T/C [6] 6.24% | viability, T/C [28] 10.6% | viability, T/C [29] 10.9% | viability, T/C [30] 7.43% | viability, T/C [34] 8.24% | viability, T/C [35] 12.3% | viability, T/C [36] 8.65%
0.12 µM: IC50 (second compound 0.0316 µM)
0.133 µM: IC50 (second compound 0.1 µM)
0.135 µM: IC50 (second compound 3.16 µM)

COc1ccc([C@@H](O)c2cc(-c3ncnc4cc(N5CCOCC5)ccc34)c(F)cc2Cl)nn1 + Nc1ccc(C#CCN(C(=O)Cc2ncc(C(F)(F)F)cc2C(F)(F)F)c2ccc(F)cc2)nn1
inactive: viability, T/C [1] 98.9% | viability, T/C [2] 104% | viability, T/C [3] 101% | viability, T/C [4] 83.8% | viability, T/C [5] 89.1% | viability, T/C [6] 48.4% | viability, T/C [7] 90.3% | viability, T/C [8] 104% | viability, T/C [9] 89.6% | viability, T/C [10] 95.2% | viability, T/C [11] 77% | viability, T/C [12] 41.6% | viability, T/C [13] 98.4% | viability, T/C [14] 96.2% | viability, T/C [15] 99.3% | viability, T/C [16] 91.4% | viability, T/C [17] 105% | viability, T/C [18] 36.7% | viability, T/C [19] 97.4% | viability, T/C [20] 83.9% | viability, T/C [21] 85.6% | viability, T/C [22] 99.9% | viability, T/C [23] 79.5% | viability, T/C [24] 47.4% | viability, T/C [25] 91.8% | viability, T/C [26] 92.1% | viability, T/C [27] 82.6% | viability, T/C [28] 90.3% | viability, T/C [29] 76.4% | viability, T/C [30] 38.8% | viability, T/C [31] 90.8% | viability, T/C [32] 87% | viability, T/C [33] 87.8% | viability, T/C [34] 85.9% | viability, T/C [35] 105% | viability, T/C [36] 44.2%
7.66 µM: IC50 (second compound 0.1 µM)
8.7 µM: IC50 (second compound 10 µM)
7.78 µM: IC50 (second compound 0.316 µM)
9.09 µM: IC50 (second compound 1 µM)
7.08 µM: IC50 (second compound 3.16 µM)
9.88 µM: IC50 (second compound 0.0316 µM)
